Data as given in article PMC4216111, “The Bile Acid-Sensitive Ion Channel (BASIC) Is Activated by Alterations of Its Membrane Environment” (PLoS ONE, 2014).
Where two headings read alike, the source gives them in different places. Values belong to the compound of their own block, whether it stands above or below them.

What was measured:
mouse BASIC [1] = tested on: T1, mouse BASIC; parameters: method as in PMID 21828194; details: cited from earlier work
T1 construct: expressed in transfected cells; host or cells: Xenopus laevis oocytes injected with cRNA

rat BASIC [2] = molecular target: T2, rat BASIC (Rattus norvegicus, UniProt Q9R0W5); parameters: expressed in transfected cells; host or cells: Xenopus laevis oocytes injected with cRNA; details: cited from earlier work
T2 sequence (Q9R0W5 1-495): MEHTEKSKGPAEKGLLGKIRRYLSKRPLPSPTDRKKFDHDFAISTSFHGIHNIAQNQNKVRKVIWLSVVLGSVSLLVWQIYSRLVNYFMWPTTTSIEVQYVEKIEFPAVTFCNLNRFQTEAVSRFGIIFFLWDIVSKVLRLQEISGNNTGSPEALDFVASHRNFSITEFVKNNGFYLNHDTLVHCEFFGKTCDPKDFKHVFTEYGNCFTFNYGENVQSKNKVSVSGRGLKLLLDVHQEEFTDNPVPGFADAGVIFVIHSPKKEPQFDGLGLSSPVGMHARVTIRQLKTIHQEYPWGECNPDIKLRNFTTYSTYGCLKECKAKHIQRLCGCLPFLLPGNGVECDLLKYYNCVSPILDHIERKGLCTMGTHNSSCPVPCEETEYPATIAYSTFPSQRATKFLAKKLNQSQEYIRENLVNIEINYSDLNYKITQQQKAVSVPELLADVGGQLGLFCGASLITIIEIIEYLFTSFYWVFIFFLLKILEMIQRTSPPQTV

human BASIC = tested on: human BASIC; parameters: method as in PMID 21828194; details: cited from earlier work
rat BASIC [3] = molecular target: T2, rat BASIC; test: Two-electrode voltage clamp, Xenopus laevis oocytes expressing rat BASIC; details: for IC50: read-out: IC50 of BASIC inhibition
[4] = tested on: Hydra Na^+ Channel (HyNaC) 2/3/5; test: Two-electrode voltage clamp, oocytes expressing HyNaC2/3/5; format: cell-based; details: 400 µM SDS, 500 µM NL, 100 µM Triton-X 100, 5 µM RFamide I
rat ASIC1a = test: Two-electrode voltage clamp, oocytes expressing rat ASIC1a; details: 400 µM SDS, 500 µM NL, 100 µM Triton-X 100, 2 mM UDCA
mouse BASIC [5] = test: Two-electrode voltage clamp, oocytes expressing mouse BASIC
non-injected oocytes = test: Two-electrode voltage clamp, non-injected control oocytes
[6] = tested on: rASIC1a-rBASIC-loop 1, - 2 and -3; test: Two-electrode voltage clamp, chimeras rASIC1a-rBASIC-loop 1, -2 and -3; format: cell-based, rat; details: 2 mM UDCA
From the text: (§1) Clones for rat BASIC (accession No. NM_022227), mouse BASIC (accession No. NM_021370), rat ASIC1a (accession No. NM_024154) and HyNaC 2, 3 and 5 (accession No. AM393878, AM393880 and FN257513) were described previously, [15], [16]. Chimeras between BASIC and ASIC1a were generated by overlap PCR and PCR fragments were cloned into the expression vector pRSSP6009 [15] using the In-Fusion cloning kit (Invitrogen, Germany). Sequences were confirmed by sequencing. Plasmid DNAs were linearized using the restriction endonucleases MluI or NaeI. cRNA was synthesized from linearized plasmids using the SP6 mMessage mMachine kit (Ambion, USA).
(§2) Chemicals were purchased from Sigma or Merck.

[7] = tested on: rASIC1a rBASIC loop 1–2, rASIC1a rBASIC loop 2–3; test: Two-electrode voltage clamp, chimeras rASIC1a rBASIC loop 1–2 and loop 2–3; format: cell-based, rat; details: 2 mM UDCA
From the text: as §1, §2

[8] = tested on: rASIC1a-rBASIC-TM1, -TM2 or -TM; test: Two-electrode voltage clamp, chimeras rASIC1a-rBASIC-TM1, -TM2 or -TM; format: cell-based, rat; details: 2 mM UDCA
From the text: as §1, §2

rASIC1a-rBASIC-loop = test: Two-electrode voltage clamp, chimera rASIC1a-rBASIC-loop; format: cell-based, rat; details: 2 mM UDCA
From the text: as §1, §2

rBASIC-rASIC1a-loop = test: Two-electrode voltage clamp, chimera rBASIC-rASIC1a-loop; format: cell-based, rat; details: 2 mM UDCA
From the text: as §1, §2

[9] = Solubility in bath solution; format: physicochemical; details: read-out: solubility limit
[10] = 400 µM SDS, 500 µM NL, 100 µM Triton-X 100, n = 8
[11] = 2 mM UDCA, 500 µM CPZ, 10 mM TNP, 100 µM Triton-X 100, 500 µM NL, 400 µM SDS, n = 8
[12] = 400 µM SDS, 500 µM N-lauroylsarcosine, 100 µM Triton-X 100, n = 7

Compound: O=C(O)c1ccccc1Nc1cccc(C(F)(F)F)c1 [FFA, flufenamic acid]
- effect on mouse BASIC (mouse BASIC [1]): not affected
- activation of rat BASIC (rat BASIC [2]): activated
- activation of human BASIC (human BASIC): activated

Compound: CCCCCCCCCCCC(=O)N(C)CC(=O)O [NL, N-lauroylsarcosine]
- activation of HyNaC 2/3/5 [4]: not activated
- activation of ASIC1a (rat ASIC1a): not activated
- increase of the low-activity (DIMI-sensitive) BASIC currents (rat BASIC [3]; [10]): 3 fold
- effect on currents when applied in the presence of diminazene (rat BASIC [3]; co-applied with diminazene): did not increase currents
- activity of mouse BASIC, normalized to the amiloride-sensitive current (mouse BASIC [5]; [11]): 1.5 fold
- current in un-injected oocytes (non-injected oocytes; [12]): 35±0.8 nA

Compound: Triton-X 100
- activation of HyNaC 2/3/5 [4]: not activated
- activation of ASIC1a (rat ASIC1a): not activated
- effect on currents when applied in the presence of diminazene (rat BASIC [3]): inhibited by diminazene
- increase of the low-activity (DIMI-sensitive) BASIC currents (rat BASIC [3]): 1.5 fold
- activity of mouse BASIC, normalized to the amiloride-sensitive current (mouse BASIC [5]): 1.2 fold
- current in un-injected oocytes (non-injected oocytes): 35±0.8 nA

Compound: CC(C)CCC[C@@H](C)[C@H]1CC[C@H]2[C@@H]3CC=C4C[C@@H](O)CC[C@]4(C)[C@H]3CC[C@]12C [cholesterol]
- effect of cholesterol application on rBASIC dependent current (rat BASIC [3]; 2 mM MβCD-balanced water-soluble cholesterol, 10 sec): did not affect the rBASIC dependent current

Compound: CCCCCCCCCCCCOS(=O)(=O)[O-].[Na+] [SDS]
- activation of HyNaC 2/3/5 [4]: not activated
- activation of ASIC1a (rat ASIC1a): not activated
- increase of the low-activity (DIMI-sensitive) BASIC currents (rat BASIC [3]; [10]): 2 fold
- effect on currents when applied in the presence of diminazene (rat BASIC [3]; co-applied with diminazene): did not increase currents
- activity of mouse BASIC, normalized to the amiloride-sensitive current (mouse BASIC [5]; [11]): 1.5 fold
- current in un-injected oocytes (non-injected oocytes; [12]): 34±0.6 nA

Second part, led by results:

- effect of diminazene on BASIC currents (rat BASIC [3]; 100 µM DIMI alone or together with SDS, NL or Triton-X 100): inhibited BASIC currents
- DIMI-sensitive current in the absence of stimulatory substances (rat BASIC [3]; n = 8): 0.25±0.03 µA
Compound: N=C(N)c1ccc(/N=N/Nc2ccc(C(=N)N)cc2)cc1 [diminazene]

- effect of cholesterol removal on rBASIC activity (rat BASIC [3]; 20 mM MβCD, approximately 2 h, control, −Ca^2+ and 2 mM UDCA): does not influence rBASIC activity
Compound: MβCD

- EC50 (rat BASIC [3]): 2700 ± 60 µM
- activation of BASIC (rat BASIC [3]; 2 mM UDCA): strongly activated BASIC
- maximum current at 5 mM UDCA (rat BASIC [3]; 5 mM UDCA, n = 10): 23.8±2.4 µA
Compound: C[C@H](CCC(=O)NCCS(=O)(=O)O)[C@H]1CC[C@H]2[C@@H]3[C@@H](O)C[C@@H]4C[C@H](O)CC[C@]4(C)[C@H]3CC[C@]12C [UDCA, tauroursodeoxycholic acid]
- activation of ASIC1a (rat ASIC1a): not activate ASIC1a
- response to UDCA of chimeras rASIC1a-rBASIC-loop 1, -2 and -3 [6]: responded weakly to UDCA
- activity of mouse BASIC, normalized to the amiloride-sensitive current (mouse BASIC [5]; [11]): 1.3 fold
- activation by UDCA of chimeras loop 1–2 and loop 2–3 [7]: weakly activated by UDCA
- activation by UDCA of chimeras rASIC1a-rBASIC-TM1, -TM2, -TM [8]: activated by UDCA
- UDCA sensitivity of chimera rASIC1a-rBASIC-loop (rASIC1a-rBASIC-loop): weakly sensitive to UDCA
- response to UDCA of chimera rBASIC-rASIC1a-loop compared to removal of divalent cations (rBASIC-rASIC1a-loop): extremely weak

- decrease of the response of BASIC to 2 mM UDCA (rat BASIC [3]; 0.5 mM CPZ co-applied with 2 mM UDCA): 2.0 fold
- solubility [9]: ≤ 500 µM
Compound: CN(C)CCCN1c2ccccc2Sc2ccc(Cl)cc21 [CPZ, chlorpromazine]
- activity of mouse BASIC, normalized to the amiloride-sensitive current (mouse BASIC [5]; [11]): 0.95 fold

- effect on UDCA-dependent activation of BASIC (rat BASIC [3]; 100 µM Gd^3+ co-applied with 2 mM UDCA): completely abolished
- IC50 (rat BASIC [3]; in the absence of UDCA (resting state), n = 8): 102 ± 34 µM
- IC50 (rat BASIC [3]; in the presence of 2 mM UDCA, n = 8): 19 ± 7 µM
Compound: [Gd+3] [Gd^3+, gadolinium]
- response of non-injected control oocytes (non-injected oocytes): did not respond
